Counter-ions that a name gives are not always drawn.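 48-hour exposure; five concentrations; linearly interpolated endpoints. GI50 = concentration required for 50% inhibition of growth.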 The source made the active and inactive calls. No stated cut-off is given here; in the data, active = GI50 up to about 1.1 µM and inactive = higher.
How the values were obtained:
Test in all cases: NCI-60 cell line screen, 48 h
COLO 205 = tested on: COLO 205
ACHN = tested on: ACHN
U-251 = tested on: U-251
OVCAR-5 = tested on: OVCAR-5
SK-MEL-28 = tested on: SK-MEL-28
UACC-257 = tested on: UACC-257
KM12 = tested on: KM12
SK-MEL-2 = tested on: SK-MEL-2
RPMI-8226 = tested on: RPMI-8226
A549 = tested on: A549
SN12C = tested on: SN12C
M14 = tested on: M14
OVCAR-8 = tested on: OVCAR-8
MOLT-4 = tested on: MOLT-4
NCI-H226 = tested on: NCI-H226
HOP-92 = tested on: HOP-92
Malme-3M = tested on: Malme-3M
SF-268 = tested on: SF-268
SF-539 = tested on: SF-539

Measured: GI50

CC(=O)c1c(C)cn(S(=O)(=O)NC(=O)Nc2nncs2)c1C
inactive: COLO 205 > 100 µM | ACHN > 100 µM | U-251 > 100 µM | OVCAR-5 > 100 µM | SK-MEL-28 > 100 µM | UACC-257 > 100 µM | KM12 > 100 µM | SK-MEL-2 > 100 µM | RPMI-8226 > 100 µM | A549 > 100 µM | SN12C > 100 µM | M14 > 100 µM | OVCAR-8 > 100 µM | MOLT-4 > 100 µM | NCI-H226 49.2 µM | HOP-92 > 100 µM | Malme-3M > 100 µM | SF-268 > 100 µM

CCCCNC(=S)N/N=C/c1cccc(C)n1
inactive: COLO 205 33.7 µM | ACHN 23 µM | U-251 44.2 µM | OVCAR-5 43.2 µM | SK-MEL-28 48.5 µM | UACC-257 37.8 µM | KM12 31.3 µM | RPMI-8226 25.5 µM | A549 32.4 µM | SF-539 29.7 µM | SN12C 30.1 µM | M14 25.1 µM | OVCAR-8 33.5 µM | MOLT-4 10.7 µM | NCI-H226 27.8 µM | HOP-92 24.2 µM | Malme-3M 52.2 µM | SF-268 34 µM

COc1ccc2c(c1)CC[C@@H]1C2CC[C@]2(C)C(=O)N(C)C(=O)CC12 (some centres undefined)
inactive: COLO 205 > 100 µM | ACHN > 100 µM | U-251 75.9 µM | OVCAR-5 > 100 µM | SK-MEL-28 > 100 µM | UACC-257 > 100 µM | KM12 > 100 µM | A549 > 100 µM | SF-539 > 100 µM | SN12C > 100 µM | M14 > 100 µM | OVCAR-8 > 100 µM | MOLT-4 > 100 µM | NCI-H226 > 100 µM | HOP-92 > 100 µM | Malme-3M > 100 µM | SF-268 > 100 µM

CN1[C@@H]2CC[C@H]1C[C@@H](OC(c1ccccc1)c1ccccc1)C2 [BENZTROPINE MESYLATE]
inactive: COLO 205 11.3 µM | ACHN 19.7 µM | U-251 15.5 µM | OVCAR-5 18.4 µM | SK-MEL-28 14.7 µM | UACC-257 13.7 µM | KM12 17.2 µM | SK-MEL-2 17.1 µM | RPMI-8226 14.7 µM | A549 16.9 µM | SN12C 27.9 µM | M14 14.7 µM | OVCAR-8 16.4 µM | MOLT-4 21 µM | NCI-H226 27.5 µM | HOP-92 12.4 µM | Malme-3M 14.9 µM | SF-268 18.5 µM

Cc1nnc(N)nc1C/C=C/C(C)Sc1ccc(Cl)cc1 (centres undefined)
inactive: COLO 205 19.1 µM | ACHN 7.46 µM | U-251 8.93 µM | OVCAR-5 10.9 µM | SK-MEL-28 12.3 µM | UACC-257 10.8 µM | KM12 4.7 µM | SK-MEL-2 12.8 µM | RPMI-8226 > 21.7 µM | A549 7 µM | SN12C 11.1 µM | M14 7.69 µM | OVCAR-8 16.5 µM | MOLT-4 3.7 µM | NCI-H226 2.04 µM | HOP-92 11.4 µM | Malme-3M 13.2 µM | SF-268 3.78 µM

O=c1oc2ccccc2cc1-c1nc2ccccc2s1
inactive: COLO 205 23.2 µM | ACHN 3.51 µM | U-251 7.35 µM | OVCAR-5 23.3 µM | SK-MEL-28 21.2 µM | UACC-257 28.1 µM | KM12 6.89 µM | RPMI-8226 2.79 µM | A549 4.94 µM | SF-539 2.89 µM | M14 16.5 µM | OVCAR-8 7.74 µM | NCI-H226 14.6 µM | HOP-92 6.65 µM | Malme-3M 2.2 µM | SF-268 8.73 µM

COC(=O)[C@@](NC(=O)OCc1ccccc1)([C@H](C)O)C(F)(F)F
inactive: COLO 205 > 100 µM | ACHN > 100 µM | U-251 > 100 µM | OVCAR-5 > 100 µM | SK-MEL-28 > 100 µM | UACC-257 > 100 µM | KM12 > 100 µM | SK-MEL-2 > 100 µM | RPMI-8226 > 100 µM | A549 > 100 µM | M14 > 100 µM | OVCAR-8 > 100 µM | MOLT-4 > 100 µM | NCI-H226 > 100 µM | HOP-92 > 100 µM | Malme-3M > 100 µM | SF-268 > 100 µM

C[C@]12CC[C@H](O)CC1=CC[C@@H]1C2CC[C@]2(C)c3n[nH]nc3CC12 (some centres undefined)
inactive: COLO 205 > 100 µM | ACHN > 100 µM | U-251 > 100 µM | OVCAR-5 > 100 µM | SK-MEL-28 > 100 µM | UACC-257 > 100 µM | KM12 > 100 µM | A549 > 100 µM | SF-539 > 100 µM | SN12C > 100 µM | M14 > 100 µM | OVCAR-8 > 100 µM | MOLT-4 > 100 µM | NCI-H226 > 100 µM | HOP-92 > 100 µM | Malme-3M > 100 µM | SF-268 > 100 µM

Source: ChEMBL document CHEMBL1201862, “PubChem BioAssay data set” (2004)
